What was measured:
Conditions in all cases: 72 h
Caco-2 [1] = test: drug sensitivity score (DSS) for viability; higher = more toxic; extreme values may be limits of the assay
Vero E6 [2] = test: as above
HepG2 [3] = test: as above
Calu-3 [4] = test: as above
Caco-2 [5] = test: relative viability EC50 (midpoint between 100% and the lowest measured viability); higher = less toxic
Vero E6 [6] = test: as above
HepG2 [7] = test: as above
Calu-3 [8] = test: as above
Caco-2 [9] = test: cell viability relative to DMSO; higher = less toxic
Vero E6 [10] = test: as above
HepG2 [11] = test: as above
Calu-3 [12] = test: as above
U2OS [13] = test: drug sensitivity score (DSS) for viability; higher = more toxic; extreme values may be limits of the assay
U2OS [14] = test: cell viability relative to DMSO; higher = less toxic
U2OS [15] = test: relative viability EC50 (midpoint between 100% and the lowest measured viability); higher = less toxic

Row | SMILES | drug sensitivity score (Caco-2 [1]) | drug sensitivity score (Vero E6 [2]) | drug sensitivity score (HepG2 [3]) | drug sensitivity score (Calu-3 [4]) | relative viability EC50 (Caco-2 [5]) [µM] | relative viability EC50 (Vero E6 [6]) [µM] | relative viability EC50 (HepG2 [7]) [µM] | relative viability EC50 (Calu-3 [8]) [µM] | cell viability (Caco-2 [9]; 1 nM) [%] | cell viability (Caco-2 [9]; 10 nM) [%] | cell viability (Caco-2 [9]; 100 nM) [%] | cell viability (Caco-2 [9]; 1000 nM) [%] | cell viability (Caco-2 [9]; 10000 nM) [%] | cell viability (Vero E6 [10]; 1 nM) [%] | cell viability (Vero E6 [10]; 10 nM) [%] | cell viability (Vero E6 [10]; 100 nM) [%] | cell viability (Vero E6 [10]; 1000 nM) [%] | cell viability (Vero E6 [10]; 10000 nM) [%] | cell viability (HepG2 [11]; 1 nM) [%] | cell viability (HepG2 [11]; 10 nM) [%] | cell viability (HepG2 [11]; 100 nM) [%] | cell viability (HepG2 [11]; 1000 nM) [%] | cell viability (HepG2 [11]; 10000 nM) [%] | cell viability (Calu-3 [12]; 1 nM) [%] | cell viability (Calu-3 [12]; 10 nM) [%] | cell viability (Calu-3 [12]; 100 nM) [%] | cell viability (Calu-3 [12]; 1000 nM) [%] | cell viability (Calu-3 [12]; 10000 nM) [%] | drug sensitivity score (U2OS [13]) | cell viability (U2OS [14]; 1 nM) [%] | cell viability (U2OS [14]; 10 nM) [%] | cell viability (U2OS [14]; 100 nM) [%] | cell viability (U2OS [14]; 1000 nM) [%] | cell viability (U2OS [14]; 10000 nM) [%] | relative viability EC50 (U2OS [15]) [µM]
1 | CC(=O)N[C@H]1[C@H]([C@H](O)[C@H](O)CO)OC(C(=O)O)=C[C@@H]1NC(=N)N [zanamivir] | 0 | 0 | 0 | 0 | > 10 | > 10 | > 10 | > 10 | 96.4 | 90.9 | 101 | 101 | 106 | 94.6 | 98.4 | 90.6 | 98.7 | 109 | 93.4 | 95.5 | 95.7 | 110 | 107 | 93.8 | 92 | 93.2 | 91.8 | 95.1 |  |  |  |  |  |  | 
2 | O=C1c2ccccc2S(=O)(=O)N1CCCCN1CCN(c2ncccn2)CC1 [ipsapirone] | 0 | 0 | 0 | 0 | > 10 | > 10 | > 10 | > 10 | 104 | 90.5 | 90.7 | 98.2 | 97.8 | 97 | 102 | 97.2 | 91.8 | 105 | 96.6 | 102 | 103 | 101 | 103 | 106 | 93.9 | 94.3 | 99.6 | 102 |  |  |  |  |  |  | 
3 | Cc1cc(C)cc(C(=O)O[C@H]2C[C@H]3CC[C@@H](C2)N3C)c1 [tropanyl-3,5-dimethylbenzoate] | 0 | 0 | 0 | 0 | > 10 | > 10 | > 10 | > 10 | 104 | 97.6 | 92.7 | 102 | 94.9 | 91.8 | 94.3 | 96.3 | 91.7 | 108 | 99.5 | 106 | 102 | 92.7 | 93.2 | 99.7 | 107 | 98.2 | 106 | 93.3 |  |  |  |  |  |  | 
4 | OCc1ccc(-c2nn(Cc3ccccc3)c3ccccc23)o1 [YC-1] | 0 | 0 | 9.5 | 0 | > 10 | > 10 | 1.5 | > 10 | 106 | 112 | 105 | 113 | 97.4 | 103 | 103 | 104 | 104 | 98.1 | 104 | 112 | 102 | 73.5 | 0.4 | 106 | 93.2 | 109 | 104 | 115 | 1.5 | 104 | 105 | 102 | 101 | 65.6 | 
5 | CCCCOC(=O)c1ccccc1Nc1cccc(C(F)(F)F)c1 [ufenamate] | 0 | 0 |  | 0 | > 10 | > 10 |  | > 10 | 96.2 | 102 | 94.4 | 93.7 | 98.1 | 110 | 104 | 106 | 106 | 98.5 |  |  |  |  |  | 105 | 87.3 | 91.8 | 93.7 | 94.7 | 0 | 91.7 | 98.7 | 92.4 | 100 | 108 | > 10
6 | CCn1c(=O)/c(=C2\Sc3ccccc3N2C)s/c1=C\c1cccc[n+]1CC [MKT-077] | 3.8 | 0.9 | 2.6 | 5.2 | 2.43 | > 10 | 3.23 | 2.64 | 92.5 | 93.7 | 100 | 95 | 44 | 100 | 97.1 | 95.3 | 90.8 | 81 | 104 | 92.8 | 109 | 100 | 49 | 96.4 | 99.9 | 101 | 94.8 | 20.8 | 3.5 | 97.8 | 98.4 | 96.2 | 94.3 | 51.4 | 
7 | CCCC[C@H]1C(=O)N(c2ccccc2)N(c2ccc(O)cc2)C1=O [oxyphenbutazone] | 3.8 | 2.5 | 6 | 0 | 2.41 |  | 2.66 | > 10 | 99.6 | 89.2 | 96.7 | 94.9 | 44.2 | 105 | 107 | 109 | 101 | 50.3 | 103 | 102 | 105 | 94.2 | 7.9 | 91.2 | 104 | 103 | 110 | 97.6 | 5.6 | 101 | 95.8 | 100 | 96 | 9.3 | 2.83
8 | CCCOc1ccc2[nH]cc(C3=CCNCC3)c2n1 | 0 |  | 0 | 0 | > 10 |  | > 10 | > 10 | 95.1 | 95.4 | 95.6 | 94.2 | 100 |  |  |  |  |  | 104 | 106 | 99.1 | 97.2 | 96.4 | 94.1 | 84.5 | 96.1 | 96.2 | 93.2 | 0 | 103 | 97.9 | 101 | 101 | 99.5 | > 10
9 | NC(=O)c1nc(F)cnc1O [favipiravir] | 0 | 0 | 0 | 0 | > 10 | > 10 | > 10 | > 10 | 88.5 | 91.7 | 71.8 | 84.7 | 88.6 | 109 | 88.4 | 101 | 96.8 | 103 | 102 | 98.8 | 103 | 79.1 | 118 | 100 | 105 | 98.5 | 111 | 97.7 |  |  |  |  |  |  | 
10 | Cn1nnnc1SCC1=C(C(=O)O)N2C(=O)[C@@H](NC(=O)[C@H](OC=O)c3ccccc3)[C@H]2SC1 [cefamandole-nafate] | 0 | 0 | 0 | 0 | > 10 | > 10 | > 10 | > 10 | 97.9 | 91.8 | 98.6 | 99.4 | 100 | 104 | 104 | 96.9 | 102 | 104 | 85.1 | 103 | 100 | 94.3 | 93.3 | 90.2 | 108 | 94.4 | 94.1 | 92.6 |  |  |  |  |  |  | 
11 | N[C@H]1CC[C@H](N[C@@H]2C[C@H]2c2ccccc2)CC1 [ORY-1001] | 0 | 0 |  | 0 | > 10 | > 10 |  | > 10 | 93.7 | 99.5 | 93.2 | 100 | 100 | 97.7 | 103 | 99 | 96.3 | 103 |  |  |  |  |  | 93.2 | 105 | 94.1 | 99.3 | 95.3 | 0 | 96.3 | 98.7 | 97.4 | 101 | 98.4 | > 10
12 | Cc1noc(-c2ccc(-c3ccc(CC(=O)O)cc3)cc2)c1NC(=O)O[C@H](C)c1ccccc1 [AM095] | 0 | 3.9 | 0 | 0 | > 10 |  | > 10 | > 10 | 91.2 | 97.4 | 93.3 | 95.2 | 94.9 | 95 | 98 | 91.4 | 81.3 | 64.2 | 87.3 | 104 | 99.8 | 101 | 91.6 | 114 | 95.7 | 95.7 | 98.3 | 102 | 0 | 94.9 | 95.3 | 99 | 93 | 97.5 | > 10
13 | COc1ccc(CCC(=O)c2c(O)cc(O[C@@H]3O[C@H](CO)[C@@H](O)[C@H](O)[C@H]3O[C@@H]3O[C@@H](C)[C@H](O)[C@@H](O)[C@H]3O)cc2O)cc1O [Neohesperidin dihydrochalcone (Nhdc)] | 0 | 0 | 0 | 0 | > 10 | > 10 | > 10 | > 10 | 102 | 104 | 95.2 | 94.2 | 106 | 103 | 104 | 99.9 | 104 | 99.7 | 101 | 110 | 108 | 107 | 92.1 | 108 | 92.8 | 102 | 99.6 | 109 |  |  |  |  |  |  | 
14 | O=C(Nc1ccccc1)[C@]12C[C@H]1/C(=N\O)c1ccccc1O2 [PHCCC] | 0 | 0 |  | 0 | > 10 | > 10 |  | > 10 | 104 | 99 | 93.4 | 107 | 94.5 | 107 | 91.5 | 102 | 92.8 | 103 |  |  |  |  |  | 102 | 102 | 90.9 | 96.4 | 93 | 0 | 97.4 | 99.9 | 95.9 | 101 | 104 | > 10
15 | C[C@@H]1CC(=O)NN=C1c1ccc(NN=C(C#N)C#N)cc1 [levosimendan] | 0 | 0 | 0 | 0 | > 10 | > 10 | > 10 | > 10 | 97.2 | 113 | 98.9 | 96 | 94.6 | 95.6 | 102 | 85.7 | 103 | 99 | 101 | 102 | 98.5 | 99.6 | 88.4 | 93.7 | 95.8 | 100 | 97.3 | 109 | 1.8 | 99 | 96.8 | 101 | 96.2 | 71.3 | 
16 | Cc1ccc2nc(N)[nH]c(=O)c2c1Sc1ccncc1 [nolatrexed] | 0.4 | 0.5 | 1.1 | 0 | > 10 | > 10 |  | > 10 | 98.2 | 98.7 | 101 | 104 | 80.3 | 103 | 97.2 | 99.8 | 98.9 | 83.1 | 107 | 99.5 | 97.1 | 101 | 71.6 | 97.9 | 93.4 | 85.8 | 96.9 | 99.1 | 0 | 94.3 | 99.3 | 92.4 | 101 | 94.3 | > 10

Reference: the supplement of paper PMC13380429
